Reference: ChEMBL document CHEMBL2021924, “Identification of novel telomeric G-quadruplex-targeting chemical scaffolds through screening of three NCI libraries” (Bioorg Med Chem Lett, 2012)

Columns and labels:
Format in all cases: nucleic-acid assay
[1] = system: Nucleic Acid; experiment: Stabilization of human G-quadruplex F21T assessed as change in melting temperature at 1 uM by FRET assay
[2] = system: Nucleic Acid; experiment: Stabilization of human G-quadruplex F21T assessed as change in melting temperature at 5 uM by FRET assay
[3] = system: Nucleic Acid; experiment: Stabilization of DNA duplex hairpin structure assessed as change in melting temperature at 1 uM by FRET assay

ΔTm [1] [°C]	ΔTm [2] [°C]	ΔTm [3] [°C]	Structure (SMILES)
13.2	24	1.7	COc1ccc2c(=O)oc3c(OC)cc(CCN(C)C)c4c(=O)oc1c2c34
19.5	40.7	1.3	Cc1cc(N)c2ccccc2[n+]1CCCCCCCCCC[n+]1c(C)cc(N)c2ccccc21
22.7	26.6	0.4	Cc1ccc(NC(=O)Nc2nc3ccccc3s2)cc1NC(=O)Nc1nc2ccccc2s1
9.7	23.8	0.3	COc1ccc2cc3[n+](cc2c1OC)CCc1cc2c(cc1-3)OCO2
20.1	21.5	2.9	O=C(Nc1ccc(C2=NCCCN2)cc1)Nc1ccc(C2=NCCCN2)cc1
13.3	33.2	3.4	O=C(Nc1ccc(C2=NCCN2)cc1)c1ccc(C(=O)Nc2ccc(C3=NCCN3)cc2)c([N+](=O)[O-])c1
1.3	22.1	0.3	CN(C)c1ccc(C=c2c3ccccc3n3c2cc(-c2ccc(Cl)cc2)[n+]3C)cc1
15	25.9	0.7	CCN(CC)Cc1cc2[nH]c3c4ccc(Cl)cc4ncc3c2cc1OC
17.3	26.3	3.2	N=C(N)c1ccc(/C=C/c2ccc(C(=N)N)cc2O)cc1
8	36.7	0.4	COc1cc(Cc2nccc3cc(OC)c(OC)cc23)c(C(C)=O)cc1OC
29.9	42.6	3.2	COc1cc2cc3c4cc(OC)c(OC)cc4cc[n+]3c(C)c2cc1OC.O=C([O-])CS(=O)(=O)O
15.8	31.1	0.4	CC(=O)N(C)c1ccc(Nc2cc(C)nc3ccc4nc[nH]c4c23)cc1
8.4	20.4	1.4	O=C(Nc1ccc(C2=NCCN2)cc1)c1ccc(C(=O)Nc2ccc(C3=NCCN3)cc2)c(Cl)c1
24.2	37.3	1.4	O=C(Nc1ccc(C2=NCCN2)cc1)c1ccc(Cl)c(C(=O)Nc2ccc(C3=NCCN3)cc2)c1
30.5	39	3.9	COc1ccc2c(NCCCCCCNc3c4ccccc4nc4cc(OC)ccc34)c3ccccc3nc2c1
4.2	15.2	2.6	CCN(CC)CCNc1ccc2nc(C)n3c4ccc(OC)cc4c(=O)c1c23
7.3	19.7	0.4	Cc1cc(N)c2cc(NC(=O)/C=C/c3ccccc3Cl)ccc2n1
11.8	38.7	0.6	Cc1cc(NCCCCCCCNc2cc(C)nc3cc(N)ccc23)c2ccc(N)cc2n1
12.4	22.9	0	Cc1ccc2c(ccc(/C=C/c3ccc(O)c4ncccc34)[n+]2C)c1
29.5	–	8.8	CN(C)c1ccc(Nc2c3ccc(NC(=O)CCN4CCCC4)cc3nc3cc(NC(=O)CCN4CCCC4)ccc23)cc1
20.3	35.1	1.8	Cc1cc2nc3ccc(N(C)C)cc3[s+]c2cc1N
8.1	18.8	0.3	COc1cc2c3c(n(C)c(=O)c2cc1OC)-c1cc2c(cc1C3=O)OCO2
11.2	36.4	0.6	CCN1C=C/C(=C\C=C\c2cc[n+](CC)c3ccccc23)c2ccccc21

Structure (SMILES)	ΔTm [1] [°C]	ΔTm [2] [°C]	ΔTm [3] [°C]
c1ccc2c(NCCCCCCCCNc3c4ccccc4nc4ccccc34)c3ccccc3nc2c1	3	38.5	0.7
